In patent publication US12466840B2, “Small molecule inhibitors of KRAS proteins” (Merck Sharp & Dohme LLC, priority 2023, dated 2025):
Read-outs that look alike come from different tables or passages of the source.

Experiments:
KRAS G12D = KRAS G12D (Homo sapiens (Human), UniProt P01116, G12D); test: SOS-catalyzed nucleotide exchange assay (GNE), KRAS G12D; assay type: biochemical; details: TR-FRET, 60 min preincubation
From the text: (§1) Procedure for SOS-Catalyzed Nucleotide Exchange Assay for KRAS-WT, G12C/D/V/A/R/S, G13D, Q61H, HRAS-WT, and NRAS-WT
(§2) Recombinant KRAS-G12C protein used in this assay has an additional triple mutation (C51S/C80L/C118S). Whereas KRAS-WT, G12D/V/A/S/R, G13D, Q61H, HRAS and NRAS are in context of their WT protein sequence background. Specifically, the SOS-catalyzed nucleotide exchange assay utilizes a preformed TR-FRET complex containing a specific biotinylated RAS protein (KRAS-WT, G12C/V/D/A/S/R, G13D, Q61H, HRAS-WT, NRAS-WT; described above) with Bodipy-GDP, and Terbium-streptavidin. Compounds are preincubated with this complex for 60 minutes. Subsequently, recombinant human SOS protein and unlabeled GTP are added to initiate the exchange reaction. Small molecule inhibitors stabilize the Bodipy-GDP complex whereas the untreated protein rapidly exchanges Bodipy-GDP for unlabeled GTP resulting in reduced TR-FRET signal.
(§3) To assemble the preformed TR-FRET complexes, each biotinylated RAS protein is diluted to 2 μM in an EDTA Buffer (20 mM HEPES pH 7.5, 50 mM sodium chloride, 10 mM EDTA, and 0.01% Tween) and incubated at room temperature for one hour. This mixture is then further diluted to 90 nM in an Assay Buffer (20 mM HEPES pH 7.5, 150 mM sodium chloride, 10 mM magnesium chloride, and 0.005% Tween) containing 15 nM of Terbium-Streptavidin (Invitrogen, catalog #PV3577) and 900 nM of Bodipy-GDP (Invitrogen, catalog #G22360) and incubated at room temperature for six hours. It should be noted that this preformed TR-FRET complex for each of the RAS protein were made ahead of time, aliquoted and stored at −80° C. until the day of the experiment.
(§4) Each test compound (10 mM stock in DMSO) is diluted in DMSO to make a final-10-point, 3-fold dilution and is acoustically dispensed into a 384-well assay plate (Corning, catalog #3820) using an Echo 550 (Labcyte). Each well of the assay plate receives 3 μL of a specific 3×RAS preformed TR-FRET complex and 3 μL of Assay Buffer and is incubated at room temperature for 60 minutes (preincubation time). Each well then receives 3 μL of 3× recombinant human SOS protein and GTP (Sigma, G8877) in Assay Buffer and is incubated at room temperature for 30 minutes (G13D), 60 minutes (KRAS WT/G12C/D, H/NRAS) or 90 minutes for G12A/R/S/V and Q61H. The final reaction in each well of 9 μL consists of 3 mM GTP, specific Ras and SOS proteins in the following concentrations: KRAS-G12C/SOS=3 nM/40 nM, KRAS-WT and G12D/SOS=1 nM/40 nM, KRAS-G12V/SOS=1.25 nM/160 nM, KRAS-G12A/S/SOS=1 nM/160 nM, KRAS-G12R/SOS=1 nM/320 nM, KRAS-Q61H/SOS=1 nM/320 nM, KRAS-G13D/SOS=1.25 nM/[…], HRAS-WT and NRAS-WT=1.25 nM/40 nM.
(§5) The time-resolved fluorescence resonance energy transfer (TR-FRET) signal is measured on an Envision (PerkinElmer) plate reader: Excitation filter=340 nm; emission1=495 nm; emission2=520 nm; dichroic mirror=D400/D505; delay time=[…]. The signal of each well is determined as the ratio of the emission at 520 nm to that at 495 nm. Percent effect of each well is determined after normalization to control wells containing DMSO (no effect) or a saturating concentration of inhibitor (max effect). The apparent effect as a function of compound concentration is fit to a four-parameter logistic equation.

KRAS WT = KRAS WT (Homo sapiens (Human), UniProt P01116); test: SOS-catalyzed nucleotide exchange assay (GNE), KRAS WT; assay type: biochemical; details: TR-FRET, 60 min preincubation
From the text: as §1, §2, §3, §4, §5

KRAS G12C = KRAS G12C (Homo sapiens (Human), UniProt P01116, C118S/C51S/C80L/G12C); test: SOS-catalyzed nucleotide exchange assay (GNE), KRAS G12C; assay type: biochemical; details: TR-FRET, 60 min preincubation; protein with C51S/C80L/C118S
From the text: as §1, §2, §3, §4, §5

HRAS = HRAS (Homo sapiens (Human), UniProt P01112); test: SOS-catalyzed nucleotide exchange assay (GNE), HRAS-WT; assay type: biochemical; details: TR-FRET, 60 min preincubation
From the text: as §1, §2, §3, §4, §5

NRAS = NRAS (Homo sapiens (Human), UniProt P01111); test: SOS-catalyzed nucleotide exchange assay (GNE), NRAS-WT; assay type: biochemical; details: TR-FRET, 60 min preincubation
From the text: as §1, §2, §3, §4, §5

KRAS G12S = KRAS G12S (Homo sapiens (Human), UniProt P01116, G12S); test: SOS-catalyzed nucleotide exchange assay (GNE), KRAS G12S; assay type: biochemical; details: TR-FRET, 60 min preincubation
From the text: as §1, §2, §3, §4, §5

KRAS G12R = KRAS G12R (Homo sapiens (Human), UniProt P01116, G12R); test: SOS-catalyzed nucleotide exchange assay (GNE), KRAS G12R; assay type: biochemical; details: TR-FRET, 60 min preincubation
From the text: as §1, §2, §3, §4, §5

[1] = Rat IV/PO pharmacokinetic studies; assay type: in vivo; details: for clearance / MRT / Vd / bioavailability / CLp: plasma; for clearance / MRT / Vd / CLp: IV 1 mg/kg; for clearance: read-out: CLp; for bioavailability / F %: oral bioavailability, PO 2 mg/kg vs. IV 1 mg/kg
Description: Procedure for Rat IV/PO Pharmacokinetic Studies
Plasma pharmacokinetic parameters for clearance, volume of distribution, half-life and oral bioavailability were determined in rats from oral administration and IV administration studies. 4 male rats, typically weighing 225-260 g, were fasted overnight prior to dosing. IV formulation was administered to 2 rats via pre-cannulated jugular vein, and oral dosing was administered to 2 rats via oral gavage. Blood was collected by pre-cannulated artery, typically at predose, 2, 8, 15, 30 min, 1, 2, 4, 6, and 8 hr postdose for IV, and at predose, 15, 30 min, 1, 2, 4, 6, 8 h for oral dosing. Samples were collected in K2EDTA tubes, stored on ice, and centrifuged. Plasma was transferred to a micro titer plate and stored at −70° C. until analysis. Plasma samples were extracted using protein precipitation and analyzed by liquid chromatography separation followed by mass spec detection (LC-MS/MS), using a standard curve for each compound. Plasma pharmacokinetic parameters were calculated for IV and oral dosing data by non-compartmental methods. Oral bioavailability was determined as the ratio of the dose-normalized plasma area under the curve (AUC) following oral dosing vs. IV dosing.

KRAS G12C, sequence (P01116 other isoform, or with tags, fused parts or gaps, stated change not applied): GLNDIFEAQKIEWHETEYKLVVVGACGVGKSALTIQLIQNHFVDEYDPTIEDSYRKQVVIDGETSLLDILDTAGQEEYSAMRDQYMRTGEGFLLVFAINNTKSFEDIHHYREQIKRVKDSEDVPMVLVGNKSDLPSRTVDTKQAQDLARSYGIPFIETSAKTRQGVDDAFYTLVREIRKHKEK
NRAS, sequence (P01111 other isoform, or with tags, fused parts or gaps): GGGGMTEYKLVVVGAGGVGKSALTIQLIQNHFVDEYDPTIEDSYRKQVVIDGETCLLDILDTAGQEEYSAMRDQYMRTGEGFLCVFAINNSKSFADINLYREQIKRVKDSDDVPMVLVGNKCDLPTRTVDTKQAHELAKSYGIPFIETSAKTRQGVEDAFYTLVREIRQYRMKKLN
KRAS WT, sequence (P01116 other isoform, or with tags, fused parts or gaps): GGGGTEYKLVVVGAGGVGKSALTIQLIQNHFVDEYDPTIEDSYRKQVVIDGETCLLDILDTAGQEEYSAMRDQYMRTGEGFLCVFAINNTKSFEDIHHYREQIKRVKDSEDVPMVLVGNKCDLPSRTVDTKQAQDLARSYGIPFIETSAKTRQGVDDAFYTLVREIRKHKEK
KRAS G12R, sequence (P01116 other isoform, or with tags, fused parts or gaps G12R (already in the parent)): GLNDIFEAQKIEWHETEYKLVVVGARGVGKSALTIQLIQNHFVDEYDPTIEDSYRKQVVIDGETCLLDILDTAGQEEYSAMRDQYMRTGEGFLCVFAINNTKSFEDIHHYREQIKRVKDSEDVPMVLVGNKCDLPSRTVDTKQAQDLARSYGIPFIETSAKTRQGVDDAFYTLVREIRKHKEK
HRAS, sequence (P01112 other isoform, or with tags, fused parts or gaps): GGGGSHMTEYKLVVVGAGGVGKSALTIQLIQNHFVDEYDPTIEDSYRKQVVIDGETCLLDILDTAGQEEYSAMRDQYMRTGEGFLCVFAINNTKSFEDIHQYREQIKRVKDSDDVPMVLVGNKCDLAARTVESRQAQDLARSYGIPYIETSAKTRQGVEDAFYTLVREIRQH
KRAS G12D, sequence (P01116 other isoform, or with tags, fused parts or gaps G12D (already in the parent)): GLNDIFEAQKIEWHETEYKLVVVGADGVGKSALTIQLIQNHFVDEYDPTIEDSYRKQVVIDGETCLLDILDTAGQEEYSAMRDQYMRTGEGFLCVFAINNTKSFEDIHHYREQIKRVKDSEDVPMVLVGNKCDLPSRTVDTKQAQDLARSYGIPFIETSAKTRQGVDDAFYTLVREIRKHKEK
KRAS G12S, sequence (P01116 other isoform, or with tags, fused parts or gaps G12S (already in the parent)): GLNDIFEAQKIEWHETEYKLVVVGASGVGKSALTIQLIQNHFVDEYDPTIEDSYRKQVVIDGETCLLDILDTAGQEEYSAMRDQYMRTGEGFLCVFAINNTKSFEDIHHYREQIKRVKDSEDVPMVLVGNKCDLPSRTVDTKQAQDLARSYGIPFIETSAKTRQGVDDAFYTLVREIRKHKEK

Structure (SMILES) | IC50 (KRAS G12D) [nM] | IC50 (KRAS WT) [nM] | IC50 (KRAS G12C) [nM] | IC50 (HRAS) [nM] | IC50 (NRAS) [nM] | IC50 (KRAS G12S) [nM] | IC50 (KRAS G12R) [nM] | clearance ([1]; male) [mL/min/kg] | MRT ([1]; male, read-out: MRT) [h] | Vd ([1]; male, read-out: Vd) [L/kg] | bioavailability ([1]; male) [%] | F % [1] [%] | CLp [1] [mL/min/kg] | MRT [1] [h] | Vd [1] [L/kg]
CCc1c(F)ccc2cc3[nH]nc(C)c3c(-c3nc4c5c(nc(OC[C@@]67CCCN6C[C@H](F)C7)nc5c3F)N3CCCOC[C@H]3CO4)c12 [Ex-6, (8aS)-5-(5-ethyl-6-fluoro-3-methyl-1H-benzo[f]indazol-4-yl)-4-fluoro-2-(((2R,7aS)-2-fluorotetrahydro-1H-pyrrolizin-7a(5H)-yl)methoxy)-8a,9,12,13-tetrahydro-8H,11H-7,10-dioxa-1,3,6,13a-tetraazanaphtho[1,8-ab]heptalene] | 1.3 | 1.6 | 6.5 | 5520 | 10000 | 1.2 | 1.2 | 36 | 2.4 | 5.1 | 18 | – | – | – | –
CCc1c(F)ccc2cc3[nH]ncc3c(-c3nc4c5c(nc(OC[C@@]67CCCN6C/C(=C\F)C7)nc5c3F)N3CCCOC[C@H]3CO4)c12 [Ex-4, (8aS)-5-(5-ethyl-6-fluoro-1H-benzo[f]indazol-4-yl)-4-fluoro-2-(((S,Z)-2-(fluoromethylene)tetrahydro-1H-pyrrolizin-7a(5H)-yl)methoxy)-8a,9,12,13-tetrahydro-8H,11H-7,10-dioxa-1,3,6,13a-tetraazanaphtho[1,8-ab]heptalene] | < 0.69 | < 0.69 | 2.9 | 1270 | 2820 | < 0.69 | < 0.69 | – | – | – | – | – | – | – | –
Fc1c(-c2c(C3CC3)c(Cl)cc3[nH]ncc23)nc2c3c(nc(OC[C@@]45CCCN4C[C@H](F)C5)nc13)N1CCCOC[C@H]1CO2 [Ex-3, (8aS)-5-(6-chloro-5-cyclopropyl-1H-indazol-4-yl)-4-fluoro-2-(((2R,7aS)-2-fluorotetrahydro-1H-pyrrolizin-7a(5H)-yl)methoxy)-8a,9,12,13-tetrahydro-8H,11H-7,10-dioxa-1,3,6,13a-tetraazanaphtho[1,8-ab]heptalene] | 1.3 | 2.5 | – | – | – | – | – | 40 | 1.7 | 4 | 7.5 | – | – | – | –
F/C=C1/CN2CCC[C@@]2(COc2nc3c4c(nc(-c5c(C6CC6)c(Cl)cc6[nH]ncc56)c(F)c4n2)OC[C@@H]2COCCCN32)C1 [Ex-1, (8aS)-5-(6-chloro-5-cyclopropyl-1H-indazol-4-yl)-4-fluoro-2-(((S,Z)-2-(fluoromethylene)tetrahydro-1H-pyrrolizin-7a(5H)-yl)methoxy)-8a,9,12,13-tetrahydro-8H,11H-7,10-dioxa-1,3,6,13a-tetraazanaphtho[1,8-ab]heptalene] | 0.67 | 0.87 | 6.9 | > 11100 | > 11100 | < 0.69 | < 0.69 | – | – | – | – | 11 | 24 | 1.4 | 2.0
CCc1c(F)ccc2cc3[nH]ncc3c(-c3nc4c5c(nc(OC[C@@]67CCCN6C[C@H](F)C7)nc5c3F)N3CCCOC[C@H]3CO4)c12 [Ex-2, (8aS)-5-(5-ethyl-6-fluoro-1H-benzo[f]indazol-4-yl)-4-fluoro-2-(((2R,7aS)-2-fluorotetrahydro-1H-pyrrolizin-7a(5H)-yl)methoxy)-8a,9,12,13-tetrahydro-8H,11H-7,10-dioxa-1,3,6,13a-tetraazanaphtho[1,8-ab]heptalene] | 0.65 | 1.1 | 3.2 | 2740 | 7020 | < 0.69 | < 0.69 | – | – | – | – | 10 | 40 | 2.5 | 6.1
F/C=C1\CN2CCC[C@@]2(COc2nc3c4c(nc(-c5c(C6(F)CC6)c(Cl)cc6[nH]ncc56)c(F)c4n2)OC[C@@H]2COCCCN32)C1 [Ex-5, (8aS)-5-(6-chloro-5-(1-fluorocyclopropyl)-1H-indazol-4-yl)-4-fluoro-2-(((S,Z)-2-(fluoromethylene)tetrahydro-1H-pyrrolizin-7a(5H)-yl)methoxy)-8a,9,12,13-tetrahydro-8H,11H-7,10-dioxa-1,3,6,13a-tetraazanaphtho[1,8-ab]heptalene] | < 0.69 | < 0.69 | 3.3 | 4680 | > 11100 | 0.77 | 1.3 | – | – | – | – | – | – | – | –
CCc1c(F)ccc2cc3[nH]nc(C)c3c(-c3nc4c5c(nc(OC[C@@]67CCCN6C/C(=C\F)C7)nc5c3F)N3CCCOC[C@H]3CO4)c12 [Ex-7, (8aS)-5-(5-ethyl-6-fluoro-3-methyl-1H-benzo[f]indazol-4-yl)-4-fluoro-2-(((S,Z)-2-(fluoromethylene)tetrahydro-1H-pyrrolizin-7a(5H)-yl)methoxy)-8a,9,12,13-tetrahydro-8H,11H-7,10-dioxa-1,3,6,13a-tetraazanaphtho[1,8-ab]heptalene] | 1.4 | 1.4 | 11 | 2180 | 8980 | 1.3 | 1.3 | – | – | – | – | 15 | 35 | 1.9 | 4.0
